ChEMBL document CHEMBL5230116, “Recent developments of small molecules with anti-inflammatory activities for the treatment of acute lung injury” (Eur J Med Chem, 2020)

Legend:
[1] = molecular target: T1, 72 kDa type IV collagenase (Homo sapiens, UniProt P08253); assay: Inhibition of recombinant human MMP-2 using QF24 as substrate incubated for 3 hrs by spectrofluorometer assay
Neutrophil collagenase = Neutrophil collagenase (Homo sapiens, UniProt P22894); assay: Inhibition of recombinant human MMP-8 using QF24 as substrate incubated for 3 hrs by spectrofluorometer assay
[2] = Inhibition of LPS induced IL-6 expression in ICR mouse peritoneal macrophage at 10 uM incubated for 30 mins followed by LPS stimulation measured after 24 hrs by ELISA assay relative to control; assay type: functional
[3] = Inhibition of LPS induced TNF-alpha expression in ICR mouse peritoneal macrophage at 10 uM incubated for 30 mins followed by LPS stimulation measured after 24 hrs by ELISA assay relative to control; assay type: functional
RAW264.7 = assay: Inhibition of NO production in LPS stimulated mouse RAW264.7 cells incubated for 1 hr by Griess reagent based assay; assay type: functional, cell-based; conditions: RAW264.7, 1 h
[4] = Inhibition of IL-6 expression in LPS stimulated mouse RAW264.7 cells incubated for 1 hr by ELISA assay; assay type: functional, cell-based; conditions: RAW264.7, 1 h
[5] = Inhibition of TNF-alpha expression in LPS stimulated mouse RAW264.7 cells incubated for 1 hr by ELISA assay; assay type: functional, cell-based; conditions: RAW264.7, 1 h
[6] = molecular target: T1, 72 kDa type IV collagenase; assay: Inhibition of MMP-2 (unknown origin)
[7] = molecular target: Matrix metalloproteinase-9 (Homo sapiens, UniProt P14780); assay: Inhibition of MMP-9 (unknown origin)
[8] = Half life in rat at 3 mg/kg, po; assay type: ADME, organism-based; conditions: in vivo
[9] = Oral bioavailability in rat at 3 mg/kg; assay type: ADME, organism-based; conditions: in vivo

T1 sequence (P08253 whole entry): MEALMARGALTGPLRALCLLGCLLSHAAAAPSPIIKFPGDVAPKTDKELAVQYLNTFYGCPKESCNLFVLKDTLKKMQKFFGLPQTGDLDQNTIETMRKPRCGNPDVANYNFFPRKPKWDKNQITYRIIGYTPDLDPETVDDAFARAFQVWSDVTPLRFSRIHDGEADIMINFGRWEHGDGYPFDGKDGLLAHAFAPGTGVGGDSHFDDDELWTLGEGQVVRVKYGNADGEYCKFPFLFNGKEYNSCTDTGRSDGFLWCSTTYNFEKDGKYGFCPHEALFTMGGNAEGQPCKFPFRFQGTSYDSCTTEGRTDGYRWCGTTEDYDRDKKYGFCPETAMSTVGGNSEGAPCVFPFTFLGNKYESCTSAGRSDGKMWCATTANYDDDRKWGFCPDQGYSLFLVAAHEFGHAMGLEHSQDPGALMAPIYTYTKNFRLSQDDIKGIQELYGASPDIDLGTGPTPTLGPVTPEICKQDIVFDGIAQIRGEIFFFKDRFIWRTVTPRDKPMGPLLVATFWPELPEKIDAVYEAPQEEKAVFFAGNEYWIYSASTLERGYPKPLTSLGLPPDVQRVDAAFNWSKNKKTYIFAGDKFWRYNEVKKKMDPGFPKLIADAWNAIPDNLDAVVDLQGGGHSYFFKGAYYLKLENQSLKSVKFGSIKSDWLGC
Neutrophil collagenase, sequence (P22894 whole entry): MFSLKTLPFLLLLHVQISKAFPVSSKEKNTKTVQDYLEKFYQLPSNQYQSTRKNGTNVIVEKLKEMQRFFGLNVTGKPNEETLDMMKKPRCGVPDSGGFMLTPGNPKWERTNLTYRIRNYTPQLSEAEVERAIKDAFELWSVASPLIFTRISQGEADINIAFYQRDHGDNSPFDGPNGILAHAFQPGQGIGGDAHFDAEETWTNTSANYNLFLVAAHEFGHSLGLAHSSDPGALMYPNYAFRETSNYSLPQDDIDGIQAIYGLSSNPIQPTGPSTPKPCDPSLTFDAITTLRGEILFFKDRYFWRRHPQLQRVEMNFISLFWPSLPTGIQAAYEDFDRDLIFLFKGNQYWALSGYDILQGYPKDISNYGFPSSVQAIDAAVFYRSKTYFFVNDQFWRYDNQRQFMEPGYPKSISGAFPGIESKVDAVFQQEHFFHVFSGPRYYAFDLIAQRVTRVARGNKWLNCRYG
Matrix metalloproteinase-9, sequence (P14780 whole entry): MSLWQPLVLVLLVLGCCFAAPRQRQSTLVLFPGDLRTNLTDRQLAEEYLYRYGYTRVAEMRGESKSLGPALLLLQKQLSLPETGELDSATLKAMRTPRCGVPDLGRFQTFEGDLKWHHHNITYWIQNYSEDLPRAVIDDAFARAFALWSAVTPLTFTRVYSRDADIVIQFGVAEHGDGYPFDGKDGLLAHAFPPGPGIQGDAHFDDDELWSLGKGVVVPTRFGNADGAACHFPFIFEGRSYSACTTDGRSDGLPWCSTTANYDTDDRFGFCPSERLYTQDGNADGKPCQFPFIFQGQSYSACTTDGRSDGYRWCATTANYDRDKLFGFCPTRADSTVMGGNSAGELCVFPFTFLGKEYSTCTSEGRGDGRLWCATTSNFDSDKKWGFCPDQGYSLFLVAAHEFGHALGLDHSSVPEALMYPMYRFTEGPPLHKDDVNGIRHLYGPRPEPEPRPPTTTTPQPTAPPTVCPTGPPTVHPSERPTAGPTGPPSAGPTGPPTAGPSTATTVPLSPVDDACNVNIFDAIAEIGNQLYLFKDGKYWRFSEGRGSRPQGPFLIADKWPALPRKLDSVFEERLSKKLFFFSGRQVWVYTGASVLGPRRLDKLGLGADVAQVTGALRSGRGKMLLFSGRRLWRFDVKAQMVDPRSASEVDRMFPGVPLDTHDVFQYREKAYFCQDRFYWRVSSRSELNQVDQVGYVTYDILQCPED

Structure (SMILES): O=C(CCN1CCN(Cc2ccccc2)CC1)Nc1nc(-c2ccccc2)cs1
- IC50 [1]: 10.2 µM
- IC50 (Neutrophil collagenase): 11.9 µM

Structure (SMILES): COc1cc(/C=C2\Cc3ccc(O)cc3C2=O)ccc1O
- inhibition at 10 µM [2]: 69.3%
- inhibition at 10 µM [3]: 83.7%

Structure (SMILES): CCCc1nn(C)c2c(NCCCN3CCOCC3)nc(/C=C/c3cc(OC)c(OC)c(OC)c3)nc12
- IC50 (RAW264.7): 2640 nM
- IC50 [4]: 4.38 µM
- IC50 [5]: 5.63 µM

Structure (SMILES): CCCOc1cccc2c1C(=O)/C(=C/c1ccc(O)c(OC)c1)C2
- inhibition at 10 µM [2]: 84.9%
- inhibition at 10 µM [3]: 72%

Structure (SMILES): O=C(CN1CCN(c2ccccc2)CC1)Nc1nc(-c2ccc(F)cc2)cs1
- IC50 [1]: 4.22 µM
- IC50 (Neutrophil collagenase): 2.34 µM

Structure (SMILES): COc1cc(/C=C2\Cc3cc(OC)c(OC)cc3C2=O)ccc1O
- inhibition at 10 µM [2]: 81.4%
- inhibition at 10 µM [3]: 79.3%

Structure (SMILES): O=C1NC(=O)C(O)(CC(=O)c2ccc(NS(=O)(=O)c3ccc(C(F)(F)F)cc3)cc2)C(=O)N1
- IC50 [6]: 2.35 nM
- IC50 [7]: 8.24 nM

Structure (SMILES): Cc1coc2c1C(=O)c1c3c-2ccc2c3c(n1Cc1ccccc1)C(=O)CC2(C)C
- half-life [8]: 243 min
- bioavailability [9]: 30.2%

Structure (SMILES): Cc1coc2c1C(=O)C(=O)c1c-2ccc2c1CCCC2(C)C [TANSHINONE IIA]
- half-life [8]: 20.4 min
- bioavailability [9]: < 3.5%
